According to ChEMBL document CHEMBL1201862, “PubChem BioAssay data set” (2004):
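Briefly, cells in 96-well plates were exposed to five compound concentrations for 48 h, and endpoints were estimated by linear interpolation. GI50 = concentration required for 50% inhibition of growth.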 Activity calls are given as the source filed them. No stated cut-off is given here; in the data, active = GI50 up to about 1.1 µM and inactive = higher.

Assays:
Assay in all cases: growth of human tumour cells (NCI), 48 h
SNB-19 = test system: SNB-19
UO-31 = test system: UO-31
SN12C = test system: SN12C
KM12 = test system: KM12
TK-10 = test system: TK-10
LOX IMVI = test system: LOX IMVI
COLO 205 = test system: COLO 205
SF-295 = test system: SF-295
MOLT-4 = test system: MOLT-4
ACHN = test system: ACHN
MCF7 = test system: MCF7
BT-549 = test system: BT-549
OVCAR-5 = test system: OVCAR-5
786-0 = test system: 786-0
NCI-H460 = test system: NCI-H460
K562 = test system: K562
CAKI-1 = test system: CAKI-1
CCRF-CEM = test system: CCRF-CEM
SNB-75 = test system: SNB-75
SK-OV-3 = test system: SK-OV-3

Measured: GI50

CC(=O)C(C(C)=O)[C@@H]1OC(C)(C)O[C@@H]1[C@H]1COC(C)(C)O1
inactive: SNB-19 64.1 µM | UO-31 55.2 µM | SN12C 20.8 µM | KM12 41.4 µM | TK-10 > 100 µM | LOX IMVI 87.1 µM | COLO 205 43.5 µM | SF-295 > 100 µM | MOLT-4 47.5 µM | ACHN > 100 µM | MCF7 43.8 µM | BT-549 34.9 µM | OVCAR-5 87.9 µM | 786-0 32.1 µM | NCI-H460 61.5 µM | K562 30.2 µM | CAKI-1 53.2 µM

Cc1cc(C)c(-c2no/c(=N\S(=O)(=O)c3ccc(Cl)cc3)o2)c(C)c1
inactive: SNB-19 > 100 µM | UO-31 > 100 µM | SN12C > 100 µM | KM12 57.9 µM | CCRF-CEM > 100 µM | TK-10 > 100 µM | COLO 205 41.4 µM | SNB-75 > 100 µM | SF-295 > 100 µM | MOLT-4 > 100 µM | ACHN > 100 µM | MCF7 16.4 µM | OVCAR-5 > 100 µM | 786-0 > 100 µM | NCI-H460 > 100 µM | SK-OV-3 > 100 µM | K562 49.5 µM | CAKI-1 > 100 µM

COC(=O)CCN1CCN(CCO)CC1C (configuration not stated)
inactive: SNB-19 > 10 µM | UO-31 > 10 µM | SN12C > 10 µM | KM12 > 10 µM | CCRF-CEM > 10 µM | TK-10 > 10 µM | LOX IMVI > 10 µM | COLO 205 > 10 µM | SNB-75 > 10 µM | SF-295 > 10 µM | MOLT-4 > 10 µM | ACHN > 10 µM | MCF7 > 10 µM | 786-0 > 10 µM | NCI-H460 > 10 µM | SK-OV-3 > 10 µM | K562 > 10 µM | CAKI-1 > 10 µM

COc1nc(C)nc2c1ncn2Cc1ccccc1
inactive: SNB-19 > 100 µM | SN12C > 100 µM | KM12 > 100 µM | CCRF-CEM > 100 µM | TK-10 > 100 µM | LOX IMVI > 100 µM | COLO 205 > 100 µM | SNB-75 > 100 µM | SF-295 > 100 µM | ACHN > 100 µM | MCF7 58.9 µM | OVCAR-5 > 100 µM | 786-0 > 100 µM | NCI-H460 > 100 µM | SK-OV-3 > 100 µM | K562 > 100 µM | CAKI-1 66.2 µM

CC(O)[C@@]1(c2ccccc2)CC2(CCN(C)CC2)O[C@H]1C (some centres not stated)
inactive: SNB-19 > 100 µM | UO-31 39.8 µM | KM12 > 100 µM | TK-10 > 100 µM | LOX IMVI > 100 µM | COLO 205 > 100 µM | SNB-75 > 100 µM | SF-295 > 100 µM | MOLT-4 > 100 µM | ACHN > 100 µM | MCF7 > 100 µM | OVCAR-5 > 100 µM | 786-0 > 100 µM | NCI-H460 > 100 µM | SK-OV-3 41 µM | K562 > 100 µM | CAKI-1 > 100 µM
active: CCRF-CEM 0.465 µM

O=C(O)CCCC#CCCCC(=O)O
inactive: SNB-19 > 100 µM | UO-31 > 100 µM | SN12C > 100 µM | KM12 > 100 µM | TK-10 > 100 µM | LOX IMVI > 100 µM | COLO 205 > 100 µM | SNB-75 43.5 µM | SF-295 > 100 µM | ACHN > 100 µM | MCF7 > 100 µM | OVCAR-5 > 100 µM | 786-0 > 100 µM | NCI-H460 > 100 µM | SK-OV-3 > 100 µM | K562 > 100 µM | CAKI-1 > 100 µM

CC(=O)N1c2ccccc2[C@H]2CCc3c([nH]c4ccccc34)[C@H]21
inactive: SNB-19 24.3 µM | UO-31 6.31 µM | SN12C 13.7 µM | KM12 11.1 µM | CCRF-CEM 11.6 µM | TK-10 41.5 µM | LOX IMVI 11.6 µM | COLO 205 13.2 µM | SNB-75 18.4 µM | SF-295 13.9 µM | MOLT-4 11.2 µM | ACHN 16 µM | BT-549 11 µM | OVCAR-5 26.9 µM | 786-0 15 µM | NCI-H460 8.39 µM | SK-OV-3 28.3 µM | K562 8.57 µM | CAKI-1 15.6 µM

N=C(N)NS(=O)(=O)c1ccc(Nc2c3ccccc3nc3c(C(=O)Nc4ccc(S(N)(=O)=O)cc4)cccc23)cc1
inactive: SNB-19 37 µM | UO-31 > 100 µM | SN12C > 100 µM | KM12 > 100 µM | CCRF-CEM 71.3 µM | TK-10 > 100 µM | LOX IMVI 28.2 µM | COLO 205 > 100 µM | SNB-75 42.1 µM | SF-295 > 100 µM | MOLT-4 > 100 µM | ACHN > 100 µM | OVCAR-5 > 100 µM | 786-0 > 100 µM | NCI-H460 > 100 µM | SK-OV-3 > 100 µM | K562 33.3 µM | CAKI-1 > 100 µM

O=C(OC1CCC2OOC1O2)c1ccc([N+](=O)[O-])cc1 (configuration not stated)
inactive: SNB-19 > 100 µM | UO-31 > 100 µM | SN12C > 100 µM | KM12 > 100 µM | CCRF-CEM > 100 µM | TK-10 > 100 µM | LOX IMVI > 100 µM | COLO 205 > 100 µM | SNB-75 > 100 µM | SF-295 > 100 µM | MOLT-4 > 100 µM | ACHN > 100 µM | OVCAR-5 > 100 µM | 786-0 > 100 µM | NCI-H460 > 100 µM | SK-OV-3 > 100 µM | K562 > 100 µM | CAKI-1 > 100 µM

CNC(=O)ON(C(C)=O)C(=O)NC [CARACEMIDE]
inactive: SNB-19 157 µM | UO-31 54.3 µM | SN12C 58.9 µM | KM12 59.8 µM | TK-10 25.5 µM | LOX IMVI 33.7 µM | SNB-75 70.3 µM | SF-295 115 µM | ACHN 18.7 µM | MCF7 51.5 µM | BT-549 19.3 µM | OVCAR-5 126 µM | 786-0 11 µM | NCI-H460 78.7 µM | SK-OV-3 106 µM | CAKI-1 55.2 µM

C#CCCCCC#Cc1ccccc1C(=O)C=[N+]=[N-]
inactive: SNB-19 > 100 µM | UO-31 > 100 µM | SN12C > 100 µM | TK-10 > 100 µM | COLO 205 > 100 µM | SNB-75 95.1 µM | SF-295 > 100 µM | MOLT-4 > 100 µM | ACHN > 100 µM | MCF7 > 100 µM | BT-549 > 100 µM | OVCAR-5 > 100 µM | 786-0 > 100 µM | NCI-H460 > 100 µM | SK-OV-3 > 100 µM | K562 39.8 µM | CAKI-1 > 100 µM

O=C1/C(=N\O)S(=O)(=O)c2ccccc21
inactive: SNB-19 > 100 µM | UO-31 > 100 µM | SN12C > 100 µM | KM12 > 100 µM | CCRF-CEM > 100 µM | TK-10 > 100 µM | LOX IMVI > 100 µM | COLO 205 > 100 µM | SNB-75 > 100 µM | SF-295 > 100 µM | MOLT-4 > 100 µM | ACHN > 100 µM | OVCAR-5 > 100 µM | 786-0 > 100 µM | NCI-H460 > 100 µM | SK-OV-3 > 100 µM | K562 > 100 µM | CAKI-1 > 100 µM

O=C(O)CCC(c1ccccc1)(c1ccccc1)c1ccccc1
inactive: SNB-19 42.3 µM | UO-31 38.9 µM | SN12C 38.9 µM | KM12 51.1 µM | CCRF-CEM 64.3 µM | TK-10 52.5 µM | LOX IMVI 45.1 µM | COLO 205 24.7 µM | SF-295 50.7 µM | MOLT-4 33.9 µM | ACHN 31 µM | MCF7 17.7 µM | OVCAR-5 > 100 µM | 786-0 62.2 µM | NCI-H460 25.2 µM | SK-OV-3 31.9 µM | K562 37.7 µM

C=C(C(=O)OC)[C@H]1CC/C(C)=C/CC/C(C)=C/CC[C@@]2(C)O[C@@H]2C1
inactive: SNB-19 > 100 µM | UO-31 19 µM | SN12C 16.9 µM | KM12 16.5 µM | CCRF-CEM 13.1 µM | TK-10 21.5 µM | LOX IMVI 15.5 µM | COLO 205 15 µM | SNB-75 65.2 µM | SF-295 11.5 µM | MOLT-4 15.8 µM | ACHN 19.8 µM | MCF7 17 µM | OVCAR-5 23.4 µM | 786-0 15.5 µM | SK-OV-3 43.7 µM | K562 11.9 µM | CAKI-1 13.2 µM

Cc1ccc(/C=C2\CCCCCC2=O)cc1
inactive: SNB-19 > 100 µM | UO-31 > 100 µM | SN12C > 100 µM | KM12 > 100 µM | CCRF-CEM 41.3 µM | TK-10 > 100 µM | LOX IMVI > 100 µM | COLO 205 > 100 µM | SNB-75 > 100 µM | SF-295 > 100 µM | MOLT-4 > 100 µM | ACHN > 100 µM | BT-549 > 100 µM | OVCAR-5 > 100 µM | 786-0 > 100 µM | NCI-H460 > 100 µM | SK-OV-3 > 100 µM | K562 > 100 µM | CAKI-1 > 100 µM

CCOC(=O)c1ccc(-c2onc(C)c2Br)[nH]1
inactive: SNB-19 66.1 µM | UO-31 32.7 µM | KM12 74 µM | TK-10 56.9 µM | COLO 205 50.2 µM | SNB-75 41.7 µM | SF-295 39.5 µM | MOLT-4 > 100 µM | ACHN 37.6 µM | MCF7 27.7 µM | BT-549 34.7 µM | OVCAR-5 > 100 µM | 786-0 43.4 µM | NCI-H460 > 100 µM | SK-OV-3 76.6 µM | K562 80.2 µM | CAKI-1 50.8 µM
